molecular target: T1, Glycogen synthase kinase-3 beta [7-25] (Oryctolagus cuniculus, UniProt G1T8E2); assay: GSK-3 Inhibition Assay; settings: 37 °C
T1 construct: 7-25
Description: 32P incorporation was measured with a scintillation counter. The GSK-3 beta activity was expressed in picomoles of phosphate incorporated in GS-1 per 20 min or in percentage of maximal activity.

IC50 [µM]	Structure (SMILES)
3	Cn1sc(=O)n(-c2cccc3ccccc23)c1=O [2-methyl-4-(1-naphthyl)-1,2,4-thiadiazolidine-3,5-dione]
6	Cn1sc(=O)n(-c2ccc(C(F)(F)F)cc2)c1=O [2-methyl-4-[4-(trifluoromethyl)phenyl]-1,2,4-thiadiazolidine-3,5-dione]
4	Cn1sc(=O)n(-c2ccc(Cl)cc2)c1=O [4-(4-Chlorophenyl)-2-methyl-1,2,4-thiadiazolidine-3,5-dione]
4	Cn1sc(=O)n(-c2ccc(F)cc2)c1=O [4-(4-Fluorophenyl)-2-methyl-1,2,4-thiadiazolidine-3,5-dione]
5	Cc1ccc(-n2c(=O)sn(C)c2=O)cc1 [4-(4-Methylphenyl)-2-methyl-1,2,4-thiadiazolidine-3,5-dione]

Continued, compound first:

Structure (SMILES)	IC50 [µM]
O=c1sn(Cc2ccccc2)c(=S)n1Cc1ccccc1 [2,4-Dibenzyl-5-oxo-1,2,4-thiadiazolidine-3-thione]	10
CCn1sc(=O)n(CC)c1=S [2,4-diethyl-3-thioxo-1,2,4-thiadiazolidin-5-one]	20
O=c1sn(-c2ccccc2)c(=S)n1-c1ccccc1 [2,4-diphenyl-5-oxo-1,2,4-thiadiazolidine-3-thione]	8
CCn1sc(=N)n(-c2ccccc2)c1=O [2-Ethyl-3-oxo-4-phenyl-1,2,4-thiadiazolidin-5-imine]	65
CCn1sc(=O)n(Cc2ccccc2)c1=S [4-Benzyl-2-ethyl-5-oxo-1,2,4-thiadiazolidine-3-thione]	6
CCn1c(=S)n(C)s/c1=N\c1cccnc1 [(5Z)-4-ethyl-2-methyl-5-(pyridin-3-ylimino)-1,2,4-thiadiazolidine-3-thione]	10
CCOC(=O)/N=c1\sn(C(=O)OCC)c(=S)n1-c1ccccc1 [ethyl (5Z)-5-[(ethoxycarbonyl)imino]-4-phenyl-3-sulfanylidene-1,2,4-thiadiazolidine-2-carboxylate]	100
CCNC(=O)/N=c1\sn(CC)c(=O)n1-c1ccccc1 [ethyl-(2-ethyl-3-oxo-4-phenyl-1,2,4-thiadiazolidin-5-ylidene)urea]	75

same assay, conditions: pH 7.5; 37 °C

IC50 [µM]	Structure (SMILES)
2	Cn1sc(=O)n(-c2ccccc2)c1=O [2-methyl-4-phenyl-1,2,4-thiadiazolidine-3,5-dione]
6	Cn1sc(=O)n(-c2ccccc2Br)c1=O [4-(2-Bromophenyl)-2-methyl-1,2,4-thiadiazolidine-3,5-dione]
4	Cn1sc(=O)n(-c2cccc(Br)c2)c1=O [4-(3-Bromophenyl)-2-methyl-1,2,4-thiadiazolidine-3,5-dione]
3	Cn1sc(=O)n(-c2ccc(Br)cc2)c1=O [4-(4-Bromophenyl)-2-methyl-1,2,4-thiadiazolidine-3,5-dione]
5	CCn1c(=O)sn(C)c1=O [4-Ethyl-2-methyl-1,2,4-thiadiazolidine-3,5-dione]

More lines, now with the values behind:

Structure (SMILES)	IC50 [µM]
CCn1sc(=O)n(Cc2ccccc2)c1=O	7
O=c1sn(Cc2ccccc2)c(=O)n1Cc1ccccc1 [2,4-Dibenzyl-1,2,4-thiadiazolidine-3,5-dione]	10
CCn1sc(=O)n(CC)c1=O [2,4-Diethyl-1,2,4-thiadiazolidine-3,5-dione]	25
CCn1c(=O)sn(C2CCCCC2)c1=O [2-Cyclohexyl-4-ethyl-1,2,4-thiadiazolidine-3,5-dione]	10
Cn1sc(=O)n(C2CCCCC2)c1=O [4-Cyclohexyl-2-methyl-1,2,4-thiadiazolidine-3,5-dione]	> 100
CCCn1sc(=O)n(CC)c1=O [4-Ethyl-2-propyl-1,2,4-thiadiazolidine-3,5-dione]	10
CCn1c(=O)sn(C(C)C)c1=O [4-ethyl-2-(propan-2-yl)-1,2,4-thiadiazolidine-3,5-dione]	35

molecular target: cAMP-dependent protein kinase catalytic subunit alpha (Bos taurus, UniProt P00517); assay: Kinase Inhibition Assay; settings: pH 7.5; 37 °C

IC50 [µM]	Structure (SMILES)
> 100	Cn1sc(=O)n(Cc2ccccc2)c1=O [4-Benzyl-2-methyl-1,2,4-thiadiazolidine-3,5-dione]

molecular target: Protein kinase C beta type (Rattus norvegicus, UniProt P68403); assay: PKC Inhibition Assay; settings: pH 7.5; 37 °C
Description: Kinase activities were assayed in buffers containing substrate, enzyme, and inhibitor at 37 °C in the presence of 10 uM ATP/ [gamma-32P] ATP. 32P incorporation was measured with a scintillation counter. The IC50 is the inhibitor concentration at which a 50% of enzyme inhibition occurs.

Sequence of Protein kinase C beta type (P68403 whole entry): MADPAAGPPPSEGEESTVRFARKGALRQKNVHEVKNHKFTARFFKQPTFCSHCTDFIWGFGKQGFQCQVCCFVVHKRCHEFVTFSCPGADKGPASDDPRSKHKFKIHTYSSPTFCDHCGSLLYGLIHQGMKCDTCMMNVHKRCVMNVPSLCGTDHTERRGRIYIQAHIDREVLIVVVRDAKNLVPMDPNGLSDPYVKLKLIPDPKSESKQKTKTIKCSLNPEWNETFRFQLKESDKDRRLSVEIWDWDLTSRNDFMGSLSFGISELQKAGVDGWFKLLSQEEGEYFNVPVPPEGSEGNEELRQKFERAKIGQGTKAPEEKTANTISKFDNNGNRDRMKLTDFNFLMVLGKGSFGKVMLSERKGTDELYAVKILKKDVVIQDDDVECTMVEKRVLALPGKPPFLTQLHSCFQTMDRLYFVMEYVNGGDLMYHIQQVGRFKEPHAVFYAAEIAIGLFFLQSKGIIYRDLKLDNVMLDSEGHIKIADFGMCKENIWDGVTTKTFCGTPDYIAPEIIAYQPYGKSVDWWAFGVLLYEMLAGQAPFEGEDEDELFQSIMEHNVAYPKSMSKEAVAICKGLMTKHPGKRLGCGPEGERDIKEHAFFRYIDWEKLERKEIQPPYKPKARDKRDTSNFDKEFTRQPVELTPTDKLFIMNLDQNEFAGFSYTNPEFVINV

IC50 [µM]	Structure (SMILES)
> 100	Cn1sc(=O)n(Cc2ccccc2)c1=O [4-Benzyl-2-methyl-1,2,4-thiadiazolidine-3,5-dione]

Reference: BindingDB's records for doi:10.1021/jm011020u (Instituto De Quimica Medica (Csic), 2002)
